Measurements published in BigSolDB 2.1.

O=c1cnc(Br)c[nH]1
solubility (mole fraction)
Settings | in DMF | in acetone | in acetonitrile | in ethanol | in ethylene glycol | in isopropanol | in methanol | in n-propanol | in propylene glycol | in water
278.15 K | 0.00576 | 0.00534 | 0.00413 | 0.000696 | 0.00014 | 0.00258 | 0.000272 | 0.00382 | 0.000194 | 8.21e-06
283.15 K | 0.00768 | 0.00685 | 0.00519 | 0.000989 | 0.000203 | 0.00333 | 0.000366 | 0.00472 | 0.00025 | 1.29e-05
288.15 K | 0.00988 | 0.00877 | 0.00625 | 0.00128 | 0.000284 | 0.00439 | 0.000485 | 0.00579 | 0.000338 | 1.81e-05
293.15 K | 0.0124 | 0.0106 | 0.00766 | 0.00166 | 0.000386 | 0.00534 | 0.000633 | 0.0072 | 0.000448 | 2.46e-05
298.15 K | 0.0151 | 0.013 | 0.00941 | 0.0021 | 0.000504 | 0.00678 | 0.000782 | 0.00879 | 0.000589 | 3.2e-05
303.15 K | 0.0181 | 0.0161 | 0.0113 | 0.00251 | 0.00065 | 0.00863 | 0.000951 | 0.0106 | 0.000766 | 4.13e-05
308.15 K | 0.0219 | 0.0194 | 0.0136 | 0.00303 | 0.000845 | 0.0109 | 0.00116 | 0.0129 | 0.000961 | 5.32e-05
313.15 K | 0.026 | 0.023 | 0.0161 | 0.0036 | 0.00111 | 0.0135 | 0.0014 | 0.0152 | 0.00121 | 6.69e-05
318.15 K | 0.0309 | 0.0275 | 0.019 | 0.00434 | 0.00139 | 0.0168 | 0.00169 | 0.018 | 0.00152 | 8.43e-05
323.15 K | 0.0365 | 0.0328 | 0.0222 | 0.00525 | 0.00174 | 0.0205 | 0.00203 | 0.0213 | 0.00187 | 0.000106
